Measurements from ChEMBL document CHEMBL5212743, “Selectivity Literature for EUbOPEN Chemogenomics Library wave 3” (2023).
One block for each molecule: values may come before it.

Columns and labels:
Activin receptor type-1 = Activin receptor type-1 (Homo sapiens, UniProt Q04771); assay: Selectivity interaction (KinomeScan (DiscoverX, competition-binding assay)) EUB0000207b ACVR1
[1] = target: T1, 5-hydroxytryptamine receptor 2B (Homo sapiens, UniProt P41595); assay: (§1) Selectivity interaction (Enzyme panel (kinases, GPCRs, ion channels, transporters)) EUB0000197b HTR2B
[2] = target: T1, 5-hydroxytryptamine receptor 2B; assay: as §1; details: at 10 µM
[3] = target: Serine/threonine-protein kinase BRSK1 (Homo sapiens) (UniProt Q8TDC3); assay: Selectivity interaction (Enzyme panel (kinases, GPCRs, ion channels, transporters)) EUB0000197b BRSK1; details: at 10 µM
[4] = target: Protein N-lysine methyltransferase METTL21A (Homo sapiens) (UniProt Q8WXB1); assay: Selectivity interaction (Methyltransferase panel) EUB0000197b METTL21A
[5] = target: cAMP-dependent protein kinase catalytic subunit PRKX (Homo sapiens) (UniProt P51817); assay: Selectivity interaction (Enzyme panel (kinases, GPCRs, ion channels, transporters)) EUB0000197b PRKX; details: at 10 µM
[6] = target: cGMP-dependent protein kinase 2 (Homo sapiens) (UniProt Q13237); assay: Selectivity interaction (Enzyme panel (kinases, GPCRs, ion channels, transporters)) EUB0000197b PRKG2; details: at 10 µM
[7] = target: Ribosomal protein S6 kinase alpha-4 (Homo sapiens) (UniProt O75676); assay: Selectivity interaction (Enzyme panel (kinases, GPCRs, ion channels, transporters)) EUB0000197b RPS6KA4; details: at 10 µM
[8] = target: Mitogen-activated protein kinase kinase kinase 12 (Homo sapiens) (UniProt Q12852); assay: Selectivity interaction (Enzyme panel (kinases, GPCRs, ion channels, transporters)) EUB0000197b DLK1; details: at 10 µM
Adenosine receptor A2b = Adenosine receptor A2b (Homo sapiens, UniProt P29275); assay: Selectivity interaction (Enzyme panel (ion channels, GPCRs, other targets)) EUB0000196bCl ADORA2B
[9] = target: Kappa-type opioid receptor (Homo sapiens, UniProt P41145); assay: Selectivity interaction (Enzyme panel (ion channels, GPCRs, other targets)) EUB0000196bCl OPRK1
[10] = target: T2, Protein arginine N-methyltransferase 5 (Homo sapiens, UniProt O14744); assay: Selectivity interaction (Methyltransferase panel) EUB0000196bCl PRMT5
[11] = target: T3, Histone-lysine N-methyltransferase SETD7 (Homo sapiens, UniProt Q8WTS6); assay: Selectivity interaction (ITC) EUB0000196bCl SETD7
T3 sequence (Q8WTS6 whole entry): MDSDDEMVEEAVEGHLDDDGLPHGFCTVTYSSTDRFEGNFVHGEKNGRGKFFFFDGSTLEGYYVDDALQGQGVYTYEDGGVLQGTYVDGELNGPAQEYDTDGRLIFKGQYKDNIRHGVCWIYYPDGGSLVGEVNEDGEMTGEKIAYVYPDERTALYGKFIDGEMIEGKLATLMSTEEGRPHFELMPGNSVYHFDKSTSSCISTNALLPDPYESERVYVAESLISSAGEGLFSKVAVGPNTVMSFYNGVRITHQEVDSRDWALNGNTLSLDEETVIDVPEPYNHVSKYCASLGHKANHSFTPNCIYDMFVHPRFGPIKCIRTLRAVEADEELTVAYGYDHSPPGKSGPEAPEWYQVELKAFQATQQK

[12] = target: DNA (cytosine-5)-methyltransferase 1 (Homo sapiens, UniProt P26358); assay: Selectivity interaction (Methyltransferase panel) EUB0000196bCl DNMT1
[13] = target: N-lysine methyltransferase SMYD2 (Homo sapiens, UniProt Q9NRG4); assay: Selectivity interaction (Methyltransferase panel) EUB0000196bCl SMYD2
[14] = target: Bombesin receptor subtype-3 (Homo sapiens, UniProt P32247); assay: Selectivity interaction (Enzyme panel (ion channels, GPCRs, other targets)) EUB0000196bCl BRS3
[15] = target: T4, Histone-lysine N-methyltransferase 2A (Homo sapiens, UniProt Q03164); assay: Selectivity interaction (Methyltransferase panel) EUB0000196bCl MLL
[16] = target: Histone-lysine N-methyltransferase, H3 lysine-79 specific (Homo sapiens, UniProt Q8TEK3); assay: Selectivity interaction (Methyltransferase panel) EUB0000196bCl DOT1L
[17] = target: T5, Histone-lysine N-methyltransferase EHMT1 (Homo sapiens, UniProt Q9H9B1); assay: Selectivity interaction (Methyltransferase panel) EUB0000196bCl EHMT1
[18] = target: T6, Histone-lysine N-methyltransferase EHMT2 (Homo sapiens, UniProt Q96KQ7); assay: Selectivity interaction (Methyltransferase panel) EUB0000196bCl EHMT2
[19] = target: T7, Histone-lysine N-methyltransferase EZH1 (Homo sapiens, UniProt Q92800); assay: Selectivity interaction (Methyltransferase panel) EUB0000196bCl EZH1
T7 sequence (Q92800 whole entry): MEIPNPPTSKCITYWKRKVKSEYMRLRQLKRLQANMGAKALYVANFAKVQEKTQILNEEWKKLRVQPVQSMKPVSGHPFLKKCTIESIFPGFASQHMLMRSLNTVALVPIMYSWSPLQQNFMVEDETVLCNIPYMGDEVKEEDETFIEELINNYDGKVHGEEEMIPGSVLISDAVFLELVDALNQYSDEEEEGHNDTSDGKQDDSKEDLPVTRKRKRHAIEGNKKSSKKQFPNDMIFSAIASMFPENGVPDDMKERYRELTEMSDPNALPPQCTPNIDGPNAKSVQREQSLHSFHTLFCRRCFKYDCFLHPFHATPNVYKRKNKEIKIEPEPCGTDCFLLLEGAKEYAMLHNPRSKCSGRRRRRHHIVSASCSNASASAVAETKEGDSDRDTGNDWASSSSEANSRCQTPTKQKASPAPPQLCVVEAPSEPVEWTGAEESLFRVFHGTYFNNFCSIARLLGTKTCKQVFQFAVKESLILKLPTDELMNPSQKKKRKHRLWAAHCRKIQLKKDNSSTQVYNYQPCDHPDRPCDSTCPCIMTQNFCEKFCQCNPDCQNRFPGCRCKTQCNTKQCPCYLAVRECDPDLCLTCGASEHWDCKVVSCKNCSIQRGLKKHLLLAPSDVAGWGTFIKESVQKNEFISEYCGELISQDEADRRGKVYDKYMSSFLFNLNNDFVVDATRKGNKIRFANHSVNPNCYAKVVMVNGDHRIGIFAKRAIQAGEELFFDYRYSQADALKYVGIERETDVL

[20] = target: T8, Histone-lysine N-methyltransferase EZH2 (Homo sapiens, UniProt Q15910); assay: Selectivity interaction (Methyltransferase panel) EUB0000196bCl EZH2
[21] = target: Histone-lysine N-methyltransferase NSD2 (Homo sapiens, UniProt O96028); assay: Selectivity interaction (Methyltransferase panel) EUB0000196bCl NSD2
[22] = target: Protein arginine N-methyltransferase 1 (Homo sapiens, UniProt Q99873); assay: Selectivity interaction (Methyltransferase panel) EUB0000196bCl PRMT1
[23] = target: T9, Protein arginine N-methyltransferase 3 (Homo sapiens, UniProt O60678); assay: Selectivity interaction (Methyltransferase panel) EUB0000196bCl PRMT3
[24] = target: Protein arginine N-methyltransferase 8 (Homo sapiens, UniProt Q9NR22); assay: Selectivity interaction (Methyltransferase panel) EUB0000196bCl PRMT8
[25] = target: Histone-lysine N-methyltransferase SETD2 (Homo sapiens, UniProt Q9BYW2); assay: Selectivity interaction (Methyltransferase panel) EUB0000196bCl SETD2
[26] = target: T10, N-lysine methyltransferase KMT5A (Homo sapiens, UniProt Q9NQR1); assay: Selectivity interaction (Methyltransferase panel) EUB0000196bCl SETD8
T10 sequence (Q9NQR1 whole entry): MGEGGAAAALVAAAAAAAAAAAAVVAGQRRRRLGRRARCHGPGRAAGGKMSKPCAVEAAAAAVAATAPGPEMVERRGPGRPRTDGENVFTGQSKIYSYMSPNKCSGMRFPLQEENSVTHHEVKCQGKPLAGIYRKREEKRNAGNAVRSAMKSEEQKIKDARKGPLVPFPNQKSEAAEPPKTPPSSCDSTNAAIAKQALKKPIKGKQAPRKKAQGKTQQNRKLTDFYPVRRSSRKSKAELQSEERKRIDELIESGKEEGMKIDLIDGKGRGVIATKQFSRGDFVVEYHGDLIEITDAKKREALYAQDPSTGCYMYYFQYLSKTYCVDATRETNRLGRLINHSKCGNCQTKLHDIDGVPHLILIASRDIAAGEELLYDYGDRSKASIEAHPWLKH

[27] = target: T11, Histone-lysine N-methyltransferase SETDB1 (Homo sapiens, UniProt Q15047); assay: Selectivity interaction (Methyltransferase panel) EUB0000196bCl SETDB1
[28] = target: T12, Histone-lysine N-methyltransferase SUV39H2 (Homo sapiens, UniProt Q9H5I1); assay: Selectivity interaction (Methyltransferase panel) EUB0000196bCl SUV39H2
[29] = target: Histone-lysine N-methyltransferase KMT5B (Homo sapiens, UniProt Q4FZB7); assay: Selectivity interaction (Methyltransferase panel) EUB0000196bCl SUV420H1
[30] = target: T13, Histone-lysine N-methyltransferase KMT5C (Homo sapiens, UniProt Q86Y97); assay: Selectivity interaction (Methyltransferase panel) EUB0000196bCl SUV420H2
[31] = target: Motilin receptor (Homo sapiens) (UniProt O43193); assay: Selectivity interaction (Enzyme panel (ion channels, GPCRs, other targets)) EUB0000196bCl MLN
[32] = target: T14, Alpha-1A adrenergic receptor (Homo sapiens) (UniProt P35348); assay: Selectivity interaction (Receptor panel (Ricerca)) EUB0000216b ADRA1A; details: at 1 µM
T14 sequence (whole entry): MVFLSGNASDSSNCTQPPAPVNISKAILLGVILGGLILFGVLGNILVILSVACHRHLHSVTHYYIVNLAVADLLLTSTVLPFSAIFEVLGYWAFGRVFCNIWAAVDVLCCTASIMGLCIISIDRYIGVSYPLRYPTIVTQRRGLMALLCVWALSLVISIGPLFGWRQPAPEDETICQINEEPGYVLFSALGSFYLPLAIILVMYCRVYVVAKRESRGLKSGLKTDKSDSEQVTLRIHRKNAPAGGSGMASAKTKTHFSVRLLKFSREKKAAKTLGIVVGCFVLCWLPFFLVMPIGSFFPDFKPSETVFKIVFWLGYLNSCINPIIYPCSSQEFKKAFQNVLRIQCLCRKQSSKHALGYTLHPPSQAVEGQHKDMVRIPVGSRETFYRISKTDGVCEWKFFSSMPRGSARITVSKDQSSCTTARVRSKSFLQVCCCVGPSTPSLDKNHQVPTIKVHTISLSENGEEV

[33] = target: T2, Protein arginine N-methyltransferase 5; assay: Selectivity interaction (Methyltransferase panel (radioactive enzyme assay)) EUB0000216b PRMT5
[34] = target: T3, Histone-lysine N-methyltransferase SETD7; assay: Selectivity interaction (Methyltransferase panel (radioactive enzyme assay)) EUB0000216b SETD7
[35] = target: T4, Histone-lysine N-methyltransferase 2A; assay: Selectivity interaction (Methyltransferase panel (radioactive enzyme assay)) EUB0000216b MLL
[36] = target: T5, Histone-lysine N-methyltransferase EHMT1; assay: Selectivity interaction (Methyltransferase panel (radioactive enzyme assay)) EUB0000216b EHMT1
[37] = target: T6, Histone-lysine N-methyltransferase EHMT2; assay: Selectivity interaction (Methyltransferase panel (radioactive enzyme assay)) EUB0000216b EHMT2
[38] = target: T8, Histone-lysine N-methyltransferase EZH2; assay: Selectivity interaction (Methyltransferase panel (radioactive enzyme assay)) EUB0000216b EZH2
[39] = target: T9, Protein arginine N-methyltransferase 3; assay: Selectivity interaction (Methyltransferase panel (radioactive enzyme assay)) EUB0000216b PRMT3
[40] = target: T10, N-lysine methyltransferase KMT5A; assay: Selectivity interaction (Methyltransferase panel (radioactive enzyme assay)) EUB0000216b SETD8
[41] = target: T11, Histone-lysine N-methyltransferase SETDB1; assay: Selectivity interaction (Methyltransferase panel (radioactive enzyme assay)) EUB0000216b SETDB1
[42] = target: T12, Histone-lysine N-methyltransferase SUV39H2; assay: Selectivity interaction (Methyltransferase panel (radioactive enzyme assay)) EUB0000216b SUV39H2
[43] = target: T13, Histone-lysine N-methyltransferase KMT5C; assay: Selectivity interaction (Methyltransferase panel (radioactive enzyme assay)) EUB0000216b SUV420H2

T5 sequence (Q9H9B1 whole entry): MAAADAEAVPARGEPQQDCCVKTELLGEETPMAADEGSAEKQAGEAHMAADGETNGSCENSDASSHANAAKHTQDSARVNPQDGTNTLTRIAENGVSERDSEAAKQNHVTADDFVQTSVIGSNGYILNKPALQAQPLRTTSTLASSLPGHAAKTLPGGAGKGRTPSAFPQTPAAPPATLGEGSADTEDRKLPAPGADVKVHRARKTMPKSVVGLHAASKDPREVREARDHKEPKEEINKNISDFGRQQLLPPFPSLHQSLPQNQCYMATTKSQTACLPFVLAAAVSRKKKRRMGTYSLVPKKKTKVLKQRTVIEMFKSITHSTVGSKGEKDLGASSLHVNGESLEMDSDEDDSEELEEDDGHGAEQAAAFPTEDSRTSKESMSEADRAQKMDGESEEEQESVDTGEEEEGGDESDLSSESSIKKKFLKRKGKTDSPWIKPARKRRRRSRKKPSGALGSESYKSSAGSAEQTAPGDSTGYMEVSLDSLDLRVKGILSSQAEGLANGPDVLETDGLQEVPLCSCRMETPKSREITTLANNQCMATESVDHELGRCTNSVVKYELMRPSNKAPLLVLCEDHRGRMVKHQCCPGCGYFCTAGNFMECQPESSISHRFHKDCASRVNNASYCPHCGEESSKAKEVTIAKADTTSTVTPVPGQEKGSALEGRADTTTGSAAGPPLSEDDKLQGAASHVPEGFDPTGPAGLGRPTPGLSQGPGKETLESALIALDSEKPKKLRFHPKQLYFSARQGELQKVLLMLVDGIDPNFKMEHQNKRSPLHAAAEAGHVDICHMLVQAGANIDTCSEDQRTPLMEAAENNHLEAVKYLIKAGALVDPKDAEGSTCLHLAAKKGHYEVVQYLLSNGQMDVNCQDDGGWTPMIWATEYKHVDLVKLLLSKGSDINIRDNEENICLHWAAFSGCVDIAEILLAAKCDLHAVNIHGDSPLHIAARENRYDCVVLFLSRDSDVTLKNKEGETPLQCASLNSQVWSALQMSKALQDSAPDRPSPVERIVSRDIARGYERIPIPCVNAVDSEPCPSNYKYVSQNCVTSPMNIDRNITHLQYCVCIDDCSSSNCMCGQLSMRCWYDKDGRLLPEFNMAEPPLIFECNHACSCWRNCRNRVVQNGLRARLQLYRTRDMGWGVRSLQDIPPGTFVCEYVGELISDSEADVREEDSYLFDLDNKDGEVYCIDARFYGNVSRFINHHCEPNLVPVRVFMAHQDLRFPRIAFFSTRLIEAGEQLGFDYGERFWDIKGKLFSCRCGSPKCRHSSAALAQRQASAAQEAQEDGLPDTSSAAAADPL
T2 sequence (O14744 whole entry): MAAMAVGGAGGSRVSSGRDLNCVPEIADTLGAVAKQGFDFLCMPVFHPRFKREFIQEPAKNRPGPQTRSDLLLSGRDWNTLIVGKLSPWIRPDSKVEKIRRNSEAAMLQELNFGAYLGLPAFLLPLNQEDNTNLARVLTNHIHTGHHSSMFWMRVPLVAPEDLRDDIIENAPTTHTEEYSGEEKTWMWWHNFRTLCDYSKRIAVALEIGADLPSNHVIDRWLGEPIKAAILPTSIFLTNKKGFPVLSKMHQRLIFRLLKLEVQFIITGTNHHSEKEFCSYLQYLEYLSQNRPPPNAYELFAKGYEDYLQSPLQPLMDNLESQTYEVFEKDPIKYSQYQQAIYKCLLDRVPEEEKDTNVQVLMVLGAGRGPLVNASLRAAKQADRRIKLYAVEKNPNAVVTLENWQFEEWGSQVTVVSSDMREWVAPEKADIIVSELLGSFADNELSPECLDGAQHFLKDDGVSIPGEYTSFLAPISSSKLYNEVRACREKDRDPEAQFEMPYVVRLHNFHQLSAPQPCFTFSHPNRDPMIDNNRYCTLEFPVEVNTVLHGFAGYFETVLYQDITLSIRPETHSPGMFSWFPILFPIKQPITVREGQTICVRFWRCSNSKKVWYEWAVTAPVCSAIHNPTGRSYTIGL
T8 sequence (Q15910 whole entry): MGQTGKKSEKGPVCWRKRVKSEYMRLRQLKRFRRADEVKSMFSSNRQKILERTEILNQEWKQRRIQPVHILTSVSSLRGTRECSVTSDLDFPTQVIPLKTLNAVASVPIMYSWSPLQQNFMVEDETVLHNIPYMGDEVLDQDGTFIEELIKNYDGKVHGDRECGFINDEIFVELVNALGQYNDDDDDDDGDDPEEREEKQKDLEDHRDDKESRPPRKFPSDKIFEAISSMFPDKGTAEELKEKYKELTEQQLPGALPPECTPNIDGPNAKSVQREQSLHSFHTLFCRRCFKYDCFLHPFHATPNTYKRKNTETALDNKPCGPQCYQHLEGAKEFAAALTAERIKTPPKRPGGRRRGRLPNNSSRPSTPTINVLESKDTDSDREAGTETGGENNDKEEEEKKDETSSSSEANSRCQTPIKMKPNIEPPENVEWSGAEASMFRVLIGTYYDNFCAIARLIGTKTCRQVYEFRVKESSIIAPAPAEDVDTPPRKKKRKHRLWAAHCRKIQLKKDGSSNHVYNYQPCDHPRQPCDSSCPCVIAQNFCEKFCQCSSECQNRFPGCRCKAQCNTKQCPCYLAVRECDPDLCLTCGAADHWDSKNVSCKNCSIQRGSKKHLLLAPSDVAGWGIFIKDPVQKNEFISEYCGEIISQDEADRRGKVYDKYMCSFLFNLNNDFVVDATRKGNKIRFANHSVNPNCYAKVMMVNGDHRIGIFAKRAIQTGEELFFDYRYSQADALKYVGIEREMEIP
T1 sequence (P41595 whole entry): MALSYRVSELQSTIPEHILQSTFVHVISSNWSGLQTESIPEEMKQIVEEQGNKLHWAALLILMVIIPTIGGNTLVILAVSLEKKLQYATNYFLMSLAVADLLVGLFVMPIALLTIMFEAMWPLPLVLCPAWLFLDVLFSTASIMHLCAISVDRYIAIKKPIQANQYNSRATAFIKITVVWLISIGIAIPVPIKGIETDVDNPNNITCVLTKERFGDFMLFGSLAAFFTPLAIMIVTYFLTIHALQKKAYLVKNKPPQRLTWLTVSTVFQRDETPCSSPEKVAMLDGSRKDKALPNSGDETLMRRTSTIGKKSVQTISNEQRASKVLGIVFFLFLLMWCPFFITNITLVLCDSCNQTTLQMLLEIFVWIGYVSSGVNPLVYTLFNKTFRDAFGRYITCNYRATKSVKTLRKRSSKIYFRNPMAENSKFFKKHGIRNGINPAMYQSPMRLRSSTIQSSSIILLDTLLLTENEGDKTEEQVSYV
T13 sequence (Q86Y97 whole entry): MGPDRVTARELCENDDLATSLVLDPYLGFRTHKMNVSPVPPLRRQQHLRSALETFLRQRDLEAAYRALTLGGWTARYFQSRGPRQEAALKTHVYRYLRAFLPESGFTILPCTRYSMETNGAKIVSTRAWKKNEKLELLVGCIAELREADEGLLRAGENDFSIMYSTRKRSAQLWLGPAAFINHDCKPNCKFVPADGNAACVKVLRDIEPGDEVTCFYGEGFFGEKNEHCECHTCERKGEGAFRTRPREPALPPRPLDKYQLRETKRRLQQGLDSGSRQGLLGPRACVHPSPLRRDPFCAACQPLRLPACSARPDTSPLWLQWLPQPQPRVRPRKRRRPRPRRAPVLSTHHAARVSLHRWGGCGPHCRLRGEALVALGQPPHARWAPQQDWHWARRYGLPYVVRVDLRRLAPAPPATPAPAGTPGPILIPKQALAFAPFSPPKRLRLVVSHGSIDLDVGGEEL
T9 sequence (O60678 whole entry): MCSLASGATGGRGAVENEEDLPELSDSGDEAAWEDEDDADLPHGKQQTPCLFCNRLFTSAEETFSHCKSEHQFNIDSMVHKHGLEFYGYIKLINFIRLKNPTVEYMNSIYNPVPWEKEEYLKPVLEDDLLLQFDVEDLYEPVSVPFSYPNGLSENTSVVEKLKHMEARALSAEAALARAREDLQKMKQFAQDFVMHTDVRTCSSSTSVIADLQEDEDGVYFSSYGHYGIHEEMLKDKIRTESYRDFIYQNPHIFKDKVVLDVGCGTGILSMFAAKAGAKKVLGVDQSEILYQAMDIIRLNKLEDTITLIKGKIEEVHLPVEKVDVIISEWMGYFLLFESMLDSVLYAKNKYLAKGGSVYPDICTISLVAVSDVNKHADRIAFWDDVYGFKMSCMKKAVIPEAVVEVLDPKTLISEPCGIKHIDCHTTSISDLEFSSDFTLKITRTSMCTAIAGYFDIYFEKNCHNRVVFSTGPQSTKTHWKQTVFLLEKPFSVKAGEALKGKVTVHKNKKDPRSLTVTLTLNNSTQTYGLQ
T12 sequence (Q9H5I1 whole entry): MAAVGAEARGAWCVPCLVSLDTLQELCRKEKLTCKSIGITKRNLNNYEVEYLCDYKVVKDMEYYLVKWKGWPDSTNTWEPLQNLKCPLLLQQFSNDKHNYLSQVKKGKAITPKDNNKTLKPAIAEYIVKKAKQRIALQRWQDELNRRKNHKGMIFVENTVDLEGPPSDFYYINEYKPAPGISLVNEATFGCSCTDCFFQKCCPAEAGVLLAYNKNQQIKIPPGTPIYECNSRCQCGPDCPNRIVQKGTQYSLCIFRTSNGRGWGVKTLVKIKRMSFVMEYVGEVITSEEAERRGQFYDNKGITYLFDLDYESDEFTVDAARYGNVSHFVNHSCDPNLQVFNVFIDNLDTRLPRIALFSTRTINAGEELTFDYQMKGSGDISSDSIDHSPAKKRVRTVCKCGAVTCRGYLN
Chain of cAMP-dependent protein kinase catalytic subunit PRKX (Homo sapiens) (P51817 whole entry): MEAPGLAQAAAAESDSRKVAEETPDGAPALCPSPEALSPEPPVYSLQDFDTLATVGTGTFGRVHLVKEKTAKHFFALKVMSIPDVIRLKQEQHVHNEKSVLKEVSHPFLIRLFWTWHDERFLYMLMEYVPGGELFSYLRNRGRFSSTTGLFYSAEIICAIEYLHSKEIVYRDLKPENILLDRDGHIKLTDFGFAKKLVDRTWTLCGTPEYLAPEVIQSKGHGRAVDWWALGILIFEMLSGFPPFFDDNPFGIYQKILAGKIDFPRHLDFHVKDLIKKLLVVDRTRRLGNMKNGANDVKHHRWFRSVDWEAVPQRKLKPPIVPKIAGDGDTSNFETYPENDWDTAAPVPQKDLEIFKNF

Kd (Activin receptor type-1): 0.98 µM
SMILES: COc1cc(Nc2ccnc3ccc(Br)cc23)cc(OC)c1OC

Ki [1]: > 15 µM
% of control [2]: 69%
% of control [3]: 56%
% of control [4]: 60%
% of control [5]: 61%
% of control [6]: 58%
% of control [7]: 55%
% of control [8]: 60%
SMILES: O=C(NCC(=O)N1CCCC1)Nc1ccc2cnccc2c1

Ki (Adenosine receptor A2b): 1.3 µM
Ki [9]: 3.8 µM
EC50 [10]: > 10 µM
Kd [11]: 0.018 µM
EC50 [12]: > 10 µM
EC50 [13]: > 10 µM
Ki [14]: 8.1 µM
EC50 [15]: > 10 µM
EC50 [16]: > 10 µM
EC50 [17]: > 10 µM
EC50 [18]: > 10 µM
EC50 [19]: > 10 µM
EC50 [20]: > 10 µM
EC50 [21]: > 10 µM
EC50 [22]: > 10 µM
EC50 [23]: > 10 µM
EC50 [24]: > 10 µM
EC50 [25]: > 10 µM
EC50 [26]: > 10 µM
EC50 [27]: > 10 µM
EC50 [28]: > 10 µM
EC50 [29]: > 10 µM
EC50 [30]: > 10 µM
Ki [31]: 7.2 µM
SMILES: O=C([C@@H](Cc1cccc(C(F)(F)F)c1)NS(=O)(=O)c1cc(F)c2c(c1)CCNC2)N1CCCC1

% of inhibition [32]: 22%
IC50 [33]: > 100 µM
IC50 [34]: > 100 µM
IC50 [35]: > 100 µM
IC50 [36]: > 100 µM
IC50 [37]: > 100 µM
IC50 [38]: > 100 µM
IC50 [39]: > 100 µM
IC50 [40]: > 100 µM
IC50 [41]: > 100 µM
IC50 [42]: > 100 µM
IC50 [43]: > 100 µM
SMILES: CC(C)N(CCCNC(=O)Nc1ccc(C(C)(C)C)cc1)C[C@H]1O[C@@H](n2cc(Br)c3c(N)ncnc32)[C@H](O)[C@@H]1O
